Measured values: patent US20240158394A1, “NEK7 INHIBITORS” (Halia Therapeutics, Inc., priority 2022, published 2024)

target: full-length recombinant human NEK7 (Homo sapiens (Human), UniProt Q8TDX7); experiment: NEK7 Enzymatic Assay; type: biochemical; conditions: casein substrate, [33P]-ATP, 2 hours at room temperature
Method: Casein substrate (from bovine milk, hydrolyzed and partially dephosphorylated mixture of α, β and κ caseins, obtained from Sigma Aldrich, catalogue #C4765, diluted in distilled water to a final concentration of 1 mg/mL) and full-length recombinant human NEK7 (expressed by baculovirus in Sf9 insect cells using a N-terminal GST tag, obtained from SignalChem, catalogue #N09-10G, 0.1 μg/μL) were mixed in assay buffer (20 mM HEPES pH 7.5, 10 mM MgCl2, 1 mM EGTA, 0.02% Brij35, 0.02 mg/mL BSA, 0.1 mM Na3VO4, 2 mM DTT, 1% DMSO). Compounds of interest (serial 3-fold dilution in DMSO from 10 μM to 0.5 nM) or vehicle (1% DMSO) were dispensed into the kinase reaction mixture by Acoustic technology (Echo550; nanoliter range). After incubation at room temperature for 20 minutes, the kinase reaction was initiated by addition of [^33P]-ATP (specific activity 10 μCi/μL) and the mixture was incubated at room temperature for 2 hours. The reaction was then stopped by spotting the reaction mixture on strips of phosphocellulose P81 paper. Following washing, the radioactivity of the P81 paper was measured and kinase activity data were expressed as the percent remaining kinase activity in test samples compared to vehicle reactions. IC50 values and curve fits were obtained using Prism (GraphPad Software).

full-length recombinant human NEK7, sequence (Q8TDX7 whole entry): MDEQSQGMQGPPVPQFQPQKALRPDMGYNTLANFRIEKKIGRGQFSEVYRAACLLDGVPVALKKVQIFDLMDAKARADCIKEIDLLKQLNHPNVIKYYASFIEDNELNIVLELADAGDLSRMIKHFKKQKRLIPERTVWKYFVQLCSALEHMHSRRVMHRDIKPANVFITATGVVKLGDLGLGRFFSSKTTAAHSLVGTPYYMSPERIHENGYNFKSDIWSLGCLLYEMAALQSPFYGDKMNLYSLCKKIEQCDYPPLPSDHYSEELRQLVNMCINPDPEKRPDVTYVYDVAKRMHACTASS

Structure (SMILES) | IC50 [µM]
CCN1CCN(Cc2ccc(NC(=O)Nc3ccc(-c4cn(C5CC5)c5ncnc(N)c45)c4c3OCC4)cc2C(F)(F)F)CC1 [Example I-54, 1-(4-(4-amino-7-cyclopropyl-7H-pyrrolo[2,3-d]pyrimidin-5-yl)-2,3-dihydrobenzofuran-7-yl)-3-(4-((4-ethylpiperazin-1-yl)methyl)-3-(trifluorometh-yl)phenyl)urea] | < 0.2
Nc1ncnc2c1c(-c1ccc(NC(=O)Nc3cc(C4(C(F)(F)F)CC4)no3)c3ncccc13)cn2C1CC1 [Example I-3, 1-(5-(4-amino-7-cyclopropyl-7H-pyrrolo[2,3-d]pyrimidin-5-yl)quinolin-8-yl)-3-(3-(1-(trifluoromethyl)cyclopropyl)-isoxazol-5-yl)urea] | > 2
CC(C)c1cc(NC(=O)Nc2ccc(-c3cn(C4CC4)c4ncnc(N)c34)n3ccnc23)no1 [Example I-26, 1-(5-(4-amino-7-cyclopropyl-7H-pyrrolo[2,3-d]pyrimidin-5-yl)imidazo[1,2-a]pyridin-8-yl)-3-(5-isopropylisoxazol-3-yl)urea] | 0.2 to 0.5
Nc1ncnc2c1c(-c1ccc(NC(=O)Nc3cc(C4(C(F)(F)F)CCC4)on3)c3nccn13)cn2C1CC1 [Example I-33, 1-(5-(4-amino-7-cyclopropyl-7H-pyrrolo[2,3-d]pyrimidin-5-yl)imidazo[1,2-a]pyridin-8-yl)-3-(5-(1-(trifluoromethyl)-cyclobutyl)isoxazol-3-yl)urea] | 0.2 to 0.5
CN1CCC(Oc2ccc(NC(=O)Nc3ccc(-c4cn(C5CC5)c5ncnc(N)c45)c4c3OCC4)cc2C(F)(F)F)CC1 [Example I-55, 1-(4-(4-amino-7-cyclopropyl-7H-pyrrolo[2,3-d]pyrimidin-5-yl)-2,3-dihydrobenzofuran-7-yl)-3-(4-((1-methylpiperidin-4-yl)oxy)-3-(trifluorometh-yl)phenyl)urea] | 0.2 to 0.5
Nc1ncnc2c1c(-c1ccc(NC(=O)Nc3cc(C4(C(F)(F)F)CC4)on3)c3nc(C(F)(F)F)cn13)cn2C1CC1 [Example I-46, 1-(5-(4-amino-7-cyclopropyl-7H-pyrrolo[2,3-d]pyrimidin-5-yl)-2-(trifluoromethyl)-imidazo[1,2-a]pyridin-8-yl)-3-(5-(1-(trifluoromethyl)cyclo-propyl)isoxazol-3-yl)urea] | > 2
CCN1CCC(Oc2ccc(NC(=O)Nc3ccc(-c4cn(C5CC5)c5ncnc(N)c45)n4ccnc34)cc2C(F)(F)F)CC1 [Example I-38, 1-(5-(4-amino-7-cyclopropyl-7H-pyrrolo[2,3-d]pyrimidin-5-yl)imidazo[1,2-a]pyridin-8-yl)-3-(4-((1-ethylpiperidin-4-yl)oxy)-3-(trifluoromethyl)-phenyl)urea] | < 0.2
CN1CCN(Cc2cc(NC(=O)Nc3ccc(-c4cn(C5CC5)c5ncnc(N)c45)n4ccnc34)cc(C(F)(F)F)c2)CC1 [Example I-36, 1-(5-(4-amino-7-cyclopropyl-7H-pyrrolo[2,3-d]pyrimidin-5-yl)imidazo[1,2-a]pyridin-8-yl)-3-(3-((4-methylpiperazin-1-yl)methyl)-5-(trifluorometh-yl)phenyl)urea] | < 0.2
CC(C)(C)c1cc(NC(=O)Nc2ccc(-c3cn(C4CC4)c4ncnc(N)c34)n3ccnc23)no1 [Example I-27, 1-(5-(4-amino-7-cyclopropyl-7H-pyrrolo[2,3-d]pyrimidin-5-yl)imidazo[1,2-a]pyridin-8-yl)-3-(5-(tert-butyl)isoxazol-3-yl)urea] | < 0.2
CC1(c2cc(NC(=O)Nc3ccc(-c4cn(C5CC5)c5ncnc(N)c45)c4ccncc34)on2)CC1 [Example I-6, 1-(5-(4-amino-7-cyclopropyl-7H-pyrrolo[2,3-d]pyrimidin-5-yl)isoquinolin-8-yl)-3-(3-(1-methylcyclopropyl)isoxazol-5-yl)urea] | 0.2 to 0.5
Cc1ccc(-n2nc(C(C)(C)C)cc2NC(=O)Nc2ccc(-c3cn(C4CC4)c4ncnc(N)c34)n3ccnc23)cc1 [Example I-12, 1-(5-(4-amino-7-cyclopropyl-7H-pyrrolo[2,3-d]pyrimidin-5-yl)imidazo[1,2-a]pyridin-8-yl)-3-(3-(tert-butyl)-1-(p-tolyl)-1H-pyrazol-5-yl)urea] | 0.2 to 0.5

Other lines, results leading:

IC50 [µM] | Structure (SMILES)
< 0.2 | Nc1ncnc2c1c(-c1ccc(NC(=O)Nc3cc(C4(C(F)(F)F)CC4)on3)c3nccn13)cn2C1CCNCC1 [Example I-94, 1-(5-(4-amino-7-(piperidin-4-yl)-7H-pyrrolo[2,3-d]pyr-imidin-5-yl)imidazo[1,2-a]-pyridin-8-yl)-3-(5-(1-(trifluoro-methyl)cyclopropyl)isoxazol-3-yl)urea]
< 0.2 | CC(C)(O)Cn1cc(-c2ccc(NC(=O)Nc3cc(C4(C(F)(F)F)CC4)on3)c3nccn23)c2c(N)ncnc21 [Example I-86, 1-(5-(4-amino-7-(2-hydroxy-2-methylpropyl)-7H-pyrrolo-[2,3-d]pyrimidin-5-yl)-imidazo[1,2-a]pyridin-8-yl)-3-(5-(1-(trifluoromethyl)-cyclopropyl)isoxazol-3-yl)urea]
< 0.2 | Nc1ncnc2c1c(-c1ccc(NC(=O)Nc3cc(C4(C(F)(F)F)CC4)on3)c3nccn13)cn2C1CC(O)C1 (stereo not drawn) [Example I-87, 1-(5-(4-amino-7-(3-hydroxy-cyclobutyl)-7H-pyrrolo[2,3-d]pyrimidin-5-yl)imidazo[1,2-a]pyridin-8-yl)-3-(5-(1-(trifluoromethyl)cyclopropyl)-isoxazol-3-yl)urea]
< 0.2 | CC(C)n1cc(-c2ccc(NC(=O)Nc3cc(C4(C(F)(F)F)CC4)on3)c3nccn23)c2c(N)ncnc21 [Example I-83, 1-(5-(4-amino-7-isopropyl-7H-pyrrolo[2,3-d]pyrimidin-5-yl)imidazo[1,2-a]pyridin-8-yl)-3-(5-(1-(trifluorometh-yl)cyclopropyl)isoxazol-3-yl)-urea]
> 2 | CN1CCC(Oc2ccc(NC(=O)Nc3ccc(-c4cn(C5CC5)c5ncnc(N)c45)c4c3OC(C)(C)C4)cc2C(F)(F)F)CC1 [Example I-61, 1-(4-(4-amino-7-cyclopropyl-7H-pyrrolo[2,3-d]pyrimidin-5-yl)-2,2-dimethyl-2,3-dihydrobenzofuran-7-yl)-3-(4-((1-methylpiperidin-4-yl)-oxy)-3-(trifluoromethyl)phen-yl)urea]
> 2 | CN1CCN(Cc2ccc(NC(=O)Nc3ccc(-c4cn(C5CC5)c5ncnc(N)c45)c4c3OC(C)(C)C4)cc2C(F)(F)F)CC1 [Example I-60, 1-(4-(4-amino-7-cyclopropyl-7H-pyrrolo[2,3-d]pyrimidin-5-yl)-2,2-dimethyl-2,3-dihydrobenzofuran-7-yl)-3-(4-((4-methylpiperazin-1-yl)-methyl)-3-(trifluoromethyl)-phenyl)urea]
< 0.2 | COCCn1cc(-c2ccc(NC(=O)Nc3cc(C4(C(F)(F)F)CC4)on3)c3nccn23)c2c(N)ncnc21 [Example I-89, 1-(5-(4-amino-7-(2-methoxy-ethyl)-7H-pyrrolo[2,3-d]-pyrimidin-5-yl)imidazo[1,2-a]pyridin-8-yl)-3-(5-(1-(trifluoromethyl)cyclopropyl)-isoxazol-3-yl)urea]
0.2 to 0.5 | CN1CCC(n2cc(-c3ccc(NC(=O)Nc4cc(C5(C(F)(F)F)CC5)on4)c4nccn34)c3c(N)ncnc32)CC1 [Example I-95, 1-(5-(4-amino-7-(1-methyl-piperidin-4-yl)-7H-pyrrolo-[2,3-d]pyrimidin-5-yl)imid-azo[1,2-a]pyridin-8-yl)-3-(5-(1-(trifluoromethyl)cyclo-propyl)isoxazol-3-yl)urea]
0.2 to 0.5 | CC1(C)Cc2c(-c3cn(C4CC4)c4ncnc(N)c34)ccc(NC(=O)Nc3cc(C4(C(F)(F)F)CC4)on3)c2O1 [Example I-59, 1-(4-(4-amino-7-cyclopropyl-7H-pyrrolo[2,3-d]pyrimidin-5-yl)-2,2-dimethyl-2,3-dihydrobenzofuran-7-yl)-3-(5-(1-(trifluoromethyl)cyclo-propyl)isoxazol-3-yl)urea]
< 0.2 | CC(C)n1cc(-c2ccc(NC(=O)Nc3ccc(OC4CCN(C)CC4)c(C(F)(F)F)c3)c3nccn23)c2c(N)ncnc21 [Example I-135, 1-(5-(4-amino-7-isopropyl-7H-pyrrolo[2,3-d]pyrimidin-5-yl)imidazo[1,2-a]pyridin-8-yl)-3-(4-((1-methylpiperidin-4-yl)oxy)-3-(trifluoromethyl)-phenyl)urea]
> 2 | CC1Cc2c(-c3cn(C4CC4)c4ncnc(N)c34)ccc(NC(=O)Nc3ccc(OC4CCN(C)CC4)c(C(F)(F)F)c3)c2O1 (stereo not drawn) [Example I-58, 1-(4-(4-amino-7-cyclopropyl-7H-pyrrolo[2,3-d]pyrimidin-5-yl)-2-methyl-2,3-dihydro-benzofuran-7-yl)-3-(4-((1-methylpiperidin-4-yl)oxy)-3-(trifluoromethyl)phenyl)urea]
< 0.2 | CCN1CCC(Oc2ccc(NC(=O)Nc3ccc(-c4cn(C(C)C)c5ncnc(N)c45)n4ccnc34)cc2C(F)(F)F)CC1 [Example I-136, 1-(5-(4-amino-7-isopropyl-7H-pyrrolo[2,3-d]pyrimidin-5-yl)imidazo[1,2-a]pyridin-8-yl)-3-(4-((1-ethylpiperidin-4-yl)oxy)-3-(trifluoromethyl)-phenyl)urea]
0.5 to 2 | Nc1ncnc2c1c(-c1ccc(NC(=O)Nc3cc(C4(C(F)(F)F)CC4)on3)c3ocnc13)cn2C1CC1 [Example I-71, 1-(4-(4-amino-7-cyclopropyl-7H-pyrrolo[2,3-d]pyrimidin-5-yl)benzo[d]oxazol-7-yl)-3-(5-(1-(trifluoromethyl)cyclo-propyl)isoxazol-3-yl)urea]
